Measured values: patent US10717749B2, “Macrocyclic sulfondiimine compounds” (BAYER PHARMA AKTIENGESELLSCHAFT, priority 2015, dated 2020)
Values after ≈ are worked out from the molar mass of the structure shown.

Key:
[1] = tested on: rat hepatocytes; test: In vitro metabolic stability in rat hepatocytes; format: in vitro ADME; conditions: 1 μM
Description: (§1) Caco-2 cells (purchased from DSMZ Braunschweig, Germany) were seeded at a density of 4.5×10^4 cells per well on 24 well insert plates, 0.4 µm pore size, and grown for 15 days in DMEM medium supplemented with 10% fetal bovine serum, 1% GlutaMAX (100×, GIBCO), 100 U/mL penicillin, 100 μg/mL streptomycin (GIBCO) and 1% non essential amino acids (100×). Cells were maintained at 37° C. in a humified 5% CO2 atmosphere. Medium was changed every 2-3 day. Before running the permeation assay, the culture medium was replaced by a FCS-free hepes-carbonate transport buffer (pH 7.2). For assessment of monolayer integrity the transepithelial electrical resistance (TEER) was measured. Test compounds were predissolved in DMSO and added either to the apical or basolateral compartment in final concentration of 2 μM in transport buffer. Before and after 2 h incubation at 37° C. samples were taken from both compartments. Analysis of compound content was done after precipitation with methanol by LC/MS/MS analysis. Permeability (Papp) was calculated in the apical to basolateral (A→B) and basolateral to apical (B→A) directions. The apparent permeability was calculated using following equation: Papp=(Vr/Po)(1/S)(P2/t) Where Vr is the volume of medium in the receiver chamber, Po is the measured peak area or height of the test drug in the donor chamber at t=o, S the surface area of the monolayer, P2 is the measured peak area of the test drug in the acceptor chamber after 2 h of incubation, and t is the incubation time. The efflux ratio basolateral (B) to apical (A) was calculated by dividing the Papp B-A by the Papp A-B. In addition the compound recovery was calculated. 6. Investigation of In Vitro Metabolic Stability in Rat Hepatocytes
Hepatocytes from Han Wistar rats were isolated via a 2-step perfusion method. After perfusion, the liver was carefully removed from the rat: the liver capsule was opened and the hepatocytes were gently shaken out into a Petri dish with ice-cold Williams medium E (purchased from Sigma Aldrich Life Science, St Louis, Mo.). The resulting cell suspension was filtered through sterile gaze in 50 ml falcon tubes and centrifuged at 50×g for 3 min at room temperature. The cell pellet was resuspended in 30 ml WME and centrifuged through a Percoll® gradient for 2 times at 100×g. […] Cell viability was determined by trypan blue exclusion. […] Samples were frozen at −20° C. over night, after subsequently centrifuged for 15 minutes at 3000 rpm and the supernatant was analyzed with an Agilent 1200 HPLC-system with LCMS/MS detection.
The half-life of a test compound was determined from the concentration-time plot. From the half-life the intrinsic clearances were calculated.

[2] = Caco-2 permeation assay; format: in vitro ADME; conditions: human, Caco-2, pH 7.2, test compound 2 μM; for efflux ratio at 2 h, 2 μM: read-out: Efflux ratio (Papp B-A/Papp A-B); for Papp A→B at 2 h, 2 μM: read-out: Papp A-B (Mari); for Papp B→A at 2 h, 2 μM: read-out: Papp B-A (Mari)
Description: 5. Caco-2 Permeation Assay:
as §1

[3] = High throughput determination of aqueous drug solubility from DMSO solution (Method 4a); format: physicochemical; conditions: phosphate buffer, kinetic from dmso stock, pH 6.5, Method 4a
Text: 4. Equilibrium Shake Flask Solubility Assay:
4a) High Throughput Determination of Aqueous Drug Solubility (100 Mmolar in DMSO)
The high throughput screening method to determine aqueous drug solubility is based on: Thomas Onofrey and Greg Kazan, Performance and correlation of a 96-well high throughput screening method to determine aqueous drug solubility, http://wwv.millipore.com/publications.nsf/a73664f9f981 af8c852569b9005b4eee/e565516fb76e7435852 56da30052db77/$FILE/AN1731EN00.pdf
The assay was run in a 96-well plate format. Each well was filled with an individual compound.
All pipetting steps were performed using a robot platform.
100 μl of a 10 mmolar solution of drug in DMSO were concentrated by vacuum centrifugation and resolved in 10 μl DMSO. 990 μl phosphate buffer pH 6.5 were added. The content of DMSO amounts to 1%. The multititer plate was put on a shaker and mixed for 24 hrs at room temperature. 150 μl of the suspension were transferred to a filtration plate. After filtration using a vacuum manifold the filtrate was diluted 1:400 and 1:8000. A second microtiter plate with 20 μl of a 10 mM solution of drug in DMSO served for calibration. Two concentrations (0.005 μM and 0.0025 μM) were prepared by dilution in DMSO/water 1:1 and used for calibration. Filtrate and calibration plates were quantified by HPLC-MS/MS.
The areas of sample- and calibration injections were determined by using mass spectromety software (AB SCIEX: Discovery Quant 2.1.3. and Analyst 1.6.1). The calculation of the solubility value (in mg/l) was executed by an inhouse developed Excel macro.

[4] = In vivo pharmacokinetics in rats; conditions: male, Wistar, rat, plasma, iv; i.v. bolus dosing to rats; read-out: t1/2: terminal half-life (converted)
Description: 7. In Vivo Pharmacokinetics in Rats
For in vivo pharmacokinetic experiments test compounds were administered to male Wistar rats intravenously at doses of 0.3 to 1 mg/kg formulated as solutions using either rat plasma or solubilizers such as PEG400 in well-tolerated amounts.
For pharmacokinetics after intravenous administration test compounds were given as i.v. bolus and blood samples were taken at 2 min, 8 min, 15 min, 30 min, 45 min, 1 h, 2 h, 4 h, 6 h, 8 h and 24 h after dosing. […] Blood was collected into Lithium-Heparin tubes (Monovetten®, Sarstedt) and centrifuged for 15 min at 3000 rpm. An aliquot of 100 μL from the supernatant (plasma) was taken and precipitated by addition of 400 μL ice cold acetonitrile and frozen at −20° C. over night. Samples were subsequently thawed and centrifuged at 3000 rpm, 4° C. for 20 minutes. Aliquots of the supernatants were taken for analytical testing using an Agilent 1200 HPLC-system with LCMS/MS detection. PK parameters were calculated by non-compartmental analysis using a PK calculation software. […]

Row | maximal calculated oral bioavailability (Fmax) based on stability data in rat hepatocytes [1] [%] | efflux ratio at 2 h, 2 μM [2] | Papp A→B at 2 h, 2 μM [2] [×10⁻⁶ cm/s] | Papp B→A at 2 h, 2 μM [2] [×10⁻⁶ cm/s] | solubility thermodynamic at 24 h [3] [µg/mL] | half-life [4] [min] | Structure (SMILES)
1 | 58 | 23.2 | 0.99 | 22.9 | – | – | CS(=N)(Cc1cc2nc(c1)OCCCOc1cc(F)ccc1-c1cc(ncc1F)N2)=NCCCO (racemic) [Example 2, (rac)-3-(2-{[15,19-difluoro-3,4-dihydro-2H,11H-10,6-(azeno)-12,16-(metheno)-1,5,11,13-benzodioxadiazacyclooctadecin-8-yl]methyl}-2-methyl-2λ^6-diazathia-1,2-dien-1-yl)propan-1-ol]
2 | 76 | 1.4 | 6.24 | 8.92 | – | 204 | CS(=N)(=N)Cc1cc2nc(c1)OCCCOc1cc(F)ccc1-c1cc(ncc1F)N2 [Example 1, 15,19-difluoro-8-[(S-methylsulfonodiimidoyl)methyl]-3,4-dihydro-2H,11H-10,6-(azeno)-12,16-(metheno)-1,5,11,13-benzodioxadiazacyclooctadecine]

Further lines, the molecule ahead of its results:

Row | Structure (SMILES) | maximal calculated oral bioavailability (Fmax) based on stability data in rat hepatocytes [1] [%] | efflux ratio at 2 h, 2 μM [2] | Papp A→B at 2 h, 2 μM [2] [×10⁻⁶ cm/s] | Papp B→A at 2 h, 2 μM [2] [×10⁻⁶ cm/s] | solubility thermodynamic at 24 h [3] [µg/mL] | half-life [4] [min]
3 | CS(=N)(Cc1cc2cc(c1)OCCCCOc1cc(F)ccc1-c1nc(ncc1F)N2)=NC1CC1 (racemic) [Example 9, (rac)-9-[(N-cyclopropyl-S-methylsulfonodiimidoyl)methyl]-16,20-difluoro-2,3,4,5-tetrahydro-12H-13,17-(azeno)-11,7-(metheno)-1,6,12,14-benzodioxadiazacyclononadecine] | – | – | – | – | 70 (≈ 140 µM) | –
4 | CN=S(C)(=N)Cc1cc2cc(c1)OCCCCOc1cc(F)ccc1-c1nc(ncc1F)N2 (racemic) [Example 10, (rac)-9-[(N,S-dimethylsulfonodiimidoyl)methyl]-16,20-difluoro-2,3,4,5-tetrahydro-12H-13,17-(azeno)-11,7-(metheno)-1,6,12,14-benzodioxadiazacyclononadecine] | 46 | – | – | – | – | –
5 | CS(=N)(=N)Cc1cc2cc(c1)OCCCCOc1cc(F)ccc1-c1nc(ncc1F)N2 [Example 5, 16,20-difluoro-9-[(S-methylsulfonodiimidoyl)methyl]-2,3,4,5-tetrahydro-12H-13,17-(azeno)-11,7-(metheno)-1,6,12,14-benzodioxadiazacyclononadecine] | 93 | 5 | 4.82 | 24.1 | 78 (≈ 170 µM) | 414
6 | CS(=N)(=N)Cc1cc2cc(c1)OCCCCOc1c(ccc(F)c1F)-c1nc(ncc1F)N2 [Example 6, 16,20,21-trifluoro-9-[(S-methylsulfonodiimidoyl)methyl]-2,3,4,5-tetrahydro-12H-13,17-(azeno)-11,7-(metheno)-1,6,12,14-benzodioxadiazacyclononadecine] | – | 4.8 | 4.64 | 22.3 | 14 (≈ 29.3 µM) | –
